This is an account of results in publication PMC5663093, “Bioprospecting of novel thermostable β-glucosidase from Bacillus subtilis RA10 and its application in biomass hydrolysis” (Biotechnology for Biofuels, 2017).

Assay [1] has as its target T1, BglB (β-glucosidase from B. subtilis RA10) (Bacillus subtilis, UniProt P42403).
T1 construct: gene bglC; full-length GH1 gene (1437 bp, start MIHKKQG, end TNGKSL fixed by degenerate primers) in pET28a+ (BamHI/SalI), E. coli BL21(DE3); Asn169-Glu170, nucleophile Glu377
The experiment in a line: β-glucosidase activity with added glucose ([…]). The assay is classed as biochemical. The conditions noted are these: inhibitor (product); weak inhibition.

The target in assay [2] is T1, BglB (β-glucosidase from B. subtilis RA10). Nature of the assay: Michaelis-Menten nonlinear regression, p-nitrophenol release. The assay is classed as biochemical. As to conditions: 50 mM citrate pH 5.0; 0.5-5.0 mM substrate.

T1 sequence (P42403 whole entry): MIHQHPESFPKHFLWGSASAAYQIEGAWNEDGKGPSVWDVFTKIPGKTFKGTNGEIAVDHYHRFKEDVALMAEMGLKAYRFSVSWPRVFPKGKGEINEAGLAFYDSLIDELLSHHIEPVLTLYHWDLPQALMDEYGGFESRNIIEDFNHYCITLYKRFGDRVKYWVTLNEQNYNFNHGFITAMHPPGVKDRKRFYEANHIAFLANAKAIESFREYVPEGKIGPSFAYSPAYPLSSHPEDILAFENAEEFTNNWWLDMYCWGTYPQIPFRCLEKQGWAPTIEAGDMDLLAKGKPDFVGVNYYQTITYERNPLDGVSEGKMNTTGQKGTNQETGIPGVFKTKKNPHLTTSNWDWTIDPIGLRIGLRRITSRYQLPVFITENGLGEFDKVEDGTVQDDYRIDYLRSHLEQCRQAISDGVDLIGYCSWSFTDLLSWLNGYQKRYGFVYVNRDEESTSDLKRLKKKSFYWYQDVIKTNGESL

As to `OC[C@H]1OC(O)[C@H](O)[C@@H](O)[C@@H]1O` (stereo partly drawn) [D-glucose], in assay [1], the “% activity retained at 1000 mM” value was 70%.

As a reminder, the Km is the concentration of substrate that gives half-maximal velocity. `O=[N+]([O-])c1ccc(O[C@@H]2O[C@H](CO)[C@@H](O)[C@H](O)[C@H]2O)cc1` [pNPG, p-nitrophenyl-β-D-glucopyranoside]: the Michaelis constant (Km) in assay [2] stood at 3.9 ± 0.2 mM.
